Laboratory results: patent publication US20230255927A1 (ELANCO TIERGESUNDHEIT AG, priority 2022, published 2023)
Marks after values point to notes of the source that are not given here.

Test system: lactating dairy cattle
Assay: Combined analysis of Wisconsin and New York Studies
Format: in vivo
Set-up: DMI / NEL: unit not given here
Method: The instant example provides the combined analysis of data from the two studies (Wisconsin Study and New York Study). The two studies were combined statistically to explore effects on milk production efficiency and other variables associated with efficiency. By effectively doubling pen numbers an increase in power of the analysis was provided. Analysis of these combined datasets was performed in various ways, with the inclusion of either weekly milk yield averages or sample day milk yields to calculate milk component yields, component corrected yields, and feed efficiency. Further, the combined dataset was analyzed using data collected from all experimental weeks as well as the exclusion of data from the first three weeks of experimental treatment feeding. This was done to exclude any shifts in response variables while the rumen environment was adapting to the treatment provided. Materials & Methods: All data from both experimental locations were combined and statistically analyzed as a longitudinal experiment design through SAS version 9.4 (SAS Institute Inc., Cary, N.C.). Experimental response variables, excluding body condition score (BCS), were analyzed using PROC MIXED and […] statements to compare treatment means using the following model: γijklm=μ+[…] Where γijklm=an individual observation of the response variable analyzed, Ti=the i^th dietary treatment, Wj=the j^th experimental week, TWij=the interaction of the i^th treatment with the j^th experimental week, Lk=the k^th experimental location, Pl(i*k)=the 1th pen within the i^th treatment and k^th experimental location, WPjl(i*k)=the interaction of the j^th experimental week with the 1th pen within the i^th treatment and k^th experimental location, Cm(l*i*k)=the m^th cow within the 1th pen, the i^th treatment and k^th experimental location, BXmlik=the covariate observation obtained after three weeks of feeding a common diet to all treatment groups, and ∈ijklmn=the random error of the m^th cow within the 1th pen, the i^th treatment and the k^th location. […] Data were analyzed with pen as the experimental unit and cow as the observational unit. Dietary treatment and experimental week were considered fixed effects, whereas location, pen and cow were considered random effects. An auto-regressive covariance structure [AR(1)] was used to analyze repeated measurements (week of experimental period) with cow nested in pen within treatment as the subject. For pen level observations (DMI, production efficiency and NEL measurements), the main effect of cattle was dropped from the statistical model above. Further, pen was used as the subject of the auto-regressive repeated analysis. Degrees of freedom were adjusted using the Kenward-Roger option and multiple treatment […] comparisons were adjusted by the Tukey method. Non-parametric analysis of BCS measurements, via PROC NPAR1WAY, was performed to evaluate differences in dietary treatments at both the initiation of the experiment and during the final week of the experiments. Statistical significance was reported as P≤0.05 and tendencies as 0.05<P≤0.10. […] This analysis, deemed the 'post-acclimation' analysis, removed the first three experimental weeks of data from the experimental dataset, leaving only the fourth to ninth weeks for statistical interpretation. The statistical model was identical to the previously described approach and all data, except for body weight and NEL (due to missing data), were reanalyzed for interpretation.

[1] = 11 g/ton, experimental weeks 4 through 9
[2] = 11 g/ton, sample day, entire experiment
[3] = 11 g/ton, sample day, weeks 4 through 9
[4] = 11 g/ton, weekly averaged, entire experiment
[5] = 11 g/ton, weekly averaged, weeks 4 through 9
[6] = 14.5 g/ton, experimental weeks 4 through 9
[7] = 14.5 g/ton, sample day, entire experiment
[8] = 14.5 g/ton, sample day, weeks 4 through 9

`CC[C@@]1([C@@H]2O[C@@H]([C@H]3O[C@@](O)(CO)[C@H](C)C[C@@H]3C)C[C@@H]2C)CC[C@H]([C@]2(C)CC[C@]3(C[C@H](O)[C@@H](C)[C@@H]([C@@H](C)[C@@H](OC)[C@H](C)C(=O)O)O3)O2)O1` [monensin] was tested, and the DMI (11 g/ton, entire experiment) was 59.7, the MUN (11 g/ton, entire experiment) was 11.0^b mg/dL and the “Milk Fat, %” value (11 g/ton, entire experiment) was 4.45%. For the same compound, the “Milk Fatty Acid: De novo” value (11 g/ton, entire experiment) was 1.08^b g/100 g, the “Milk Fatty Acid: Mixed” value (11 g/ton, entire experiment) was 1.79 g/100 g and the “Milk Fatty Acid: Performed” value (11 g/ton, entire experiment) was 1.32 g/100 g. The “Milk Fatty Acid: Total FA” value (11 g/ton, entire experiment) was 4.20 g/100 g, the “Milk Lactose, %” value (11 g/ton, entire experiment) was 4.66% and the “Milk Protein, %” value (11 g/ton, entire experiment) was 3.29%. For the same compound, the DMI [1] was 59.5, the MUN [1] was 11.1^by mg/dL and the “Milk Fat, %” value [1] was 4.46%. The “Milk Fatty Acid: Mixed” value [1] was 1.79^ab g/100 g, the “Milk Fatty Acid: Performed” value [1] was 1.33 g/100 g and the “Milk Fatty Acid: Total FA” value [1] was 4.21 g/100 g. For the same compound, the “Milk Lactose, %” value [1] was 4.65%, the “Milk Protein, %” value [1] was 3.33% and the NEL (11 g/ton, sample day milk yield, entire experiment) was 1.53. For the same compound, the “Day of Sample Milk Yield” value [2] was 92.0 lb, the ECM [2] was 100.8^a lb and the “ECM:Feed” value [2] was 1.72^a. The FCM [2] was 95.3^a lb, the “FCM:Feed” value [2] was 1.63^a and the Fat yield [2] was 4.05^xy lb. The Lactose yield [2] was 4.30 lb, the “Milk:Feed” value [2] was 1.56^xy and the Protein yield [2] was 3.02 lb. The SCM [2] was 95.2^xy lb, the “SCM:Feed” value [2] was 1.59^ab and the “Day of Sample Milk Yield” value [3] was 90.6 lb. The ECM [3] was 102.0^ab lb, the “ECM:Feed” value [3] was 1.71^abx and the FCM [3] was 96.2^ab lb. The “FCM:Feed” value [3] was 1.61^b, the Fat yield [3] was 3.98^ab lb and the Lactose yield [3] was 4.23 lb. The “Milk:Feed” value [3] was 1.54^xy, the Protein yield [3] was 3.01 lb and the SCM [3] was 93.9^ab lb. For the same compound, the “SCM:Feed” value [3] was 1.57^abx, the NEL (11 g/ton, weekly averaged milk yield, entire experiment) was 1.53 and the ECM [4] was 102.8 lb. The “ECM:Feed” value [4] was 1.73^aby, the FCM [4] was 97.2 lb and the “FCM:Feed” value [4] was 1.64^b. For the same compound, the Fat yield [4] was 4.03 lb, the Lactose yield [4] was 4.27 lb and the “Milk Yield” value [4] was 91.5 lb. The “Milk:Feed” value [4] was 1.57, the Protein yield [4] was 3.00 lb and the SCM [4] was 94.7^xy lb. The “SCM:Feed” value [4] was 1.59^by, the ECM [5] was 101.6^y lb and the “ECM:Feed” value [5] was 1.72^b. For the same compound, the FCM [5] was 95.9^y lb, the “FCM:Feed” value [5] was 1.62^b and the Fat yield [5] was 3.97^ab lb. The Lactose yield [5] was 4.19 lb, the “Milk Yield” value [5] was 90.4 lb and the “Milk:Feed” value [5] was 1.55. The Protein yield [5] was 2.99 lb, the SCM [5] was 93.5^aby lb and the “SCM:Feed” value [5] was 1.58^b. For the same compound, the DMI (14.5 g/ton, entire experiment) was 59.2, the “Milk Fat, %” value (14.5 g/ton, entire experiment) was 4.47% and the “Milk Fatty Acid: De novo” value (14.5 g/ton, entire experiment) was 1.08^b g/100 g. The “Milk Fatty Acid: Mixed” value (14.5 g/ton, entire experiment) was 1.80 g/100 g, the “Milk Fatty Acid: Performed” value (14.5 g/ton, entire experiment) was 1.31 g/100 g and the “Milk Fatty Acid: Total FA” value (14.5 g/ton, entire experiment) was 4.20 g/100 g. The “Milk Lactose, %” value (14.5 g/ton, entire experiment) was 4.67%, the “Milk Protein, %” value (14.5 g/ton, entire experiment) was 3.30% and the DMI [6] was 59.5. The MUN [6] was 11.0^b mg/dL, the “Milk Fat, %” value [6] was 4.50% and the “Milk Fatty Acid: Mixed” value [6] was 1.82^b g/100 g. The “Milk Fatty Acid: Performed” value [6] was 1.32 g/100 g, the “Milk Fatty Acid: Total FA” value [6] was 4.23 g/100 g and the “Milk Lactose, %” value [6] was 4.66%. The “Milk Protein, %” value [6] was 3.33%, the NEL (14.5 g/ton, sample day milk yield, entire experiment) was 1.55 and the “Day of Sample Milk Yield” value [7] was 92.6 lb. For the same compound, the ECM [7] was 104.1^b lb, the “ECM:Feed” value [7] was 1.77^b and the FCM [7] was 98.6^b lb. The “FCM:Feed” value [7] was 1.68^b, the Fat yield [7] was 4.09^y lb and the Lactose yield [7] was 4.34 lb. For the same compound, the “Milk:Feed” value [7] was 1.61^y, the Protein yield [7] was 3.03 lb and the SCM [7] was 96.0^y lb. For the same compound, the “SCM:Feed” value [7] was 1.64^b, the “Day of Sample Milk Yield” value [8] was 91.3 lb and the ECM [8] was 103.3^b lb. For the same compound, the “ECM:Feed” value [8] was 1.75^by, the FCM [8] was 97.6^b lb and the “FCM:Feed” value [8] was 1.66^c.
